# Assay results published in patent publication US8952162B2, “Triazolopyridines as phosphodiesterase inhibitors for treatment of dermal diseases” (Leo Pharma A/S, priority 2008, dated 2015).
# Molecular target: Human recombinant PDE4 (Genbank accession no NM—006203) (Homo sapiens, UniProt Q08499)
# Assay: PDE4 assay (SPA, cAMP cleavage)
# Type: biochemical
# Details: Example 53; PDE4 assay as in example 52; read-out: PDE4 IC50 range
# Protocol: At the end of the incubation, the cleavage of the substrate was evaluated by the binding of the AMP product to SPA beads, which generate chemoluminescence when bound to the radioactive tracer. The AMP product inhibited the binding of the radioactive tracer to the beads, and the luminescent signal was competed.
# Chain of Human recombinant PDE4 (Genbank accession no NM—006203) (Q08499 1-673 isoform Q08499-2): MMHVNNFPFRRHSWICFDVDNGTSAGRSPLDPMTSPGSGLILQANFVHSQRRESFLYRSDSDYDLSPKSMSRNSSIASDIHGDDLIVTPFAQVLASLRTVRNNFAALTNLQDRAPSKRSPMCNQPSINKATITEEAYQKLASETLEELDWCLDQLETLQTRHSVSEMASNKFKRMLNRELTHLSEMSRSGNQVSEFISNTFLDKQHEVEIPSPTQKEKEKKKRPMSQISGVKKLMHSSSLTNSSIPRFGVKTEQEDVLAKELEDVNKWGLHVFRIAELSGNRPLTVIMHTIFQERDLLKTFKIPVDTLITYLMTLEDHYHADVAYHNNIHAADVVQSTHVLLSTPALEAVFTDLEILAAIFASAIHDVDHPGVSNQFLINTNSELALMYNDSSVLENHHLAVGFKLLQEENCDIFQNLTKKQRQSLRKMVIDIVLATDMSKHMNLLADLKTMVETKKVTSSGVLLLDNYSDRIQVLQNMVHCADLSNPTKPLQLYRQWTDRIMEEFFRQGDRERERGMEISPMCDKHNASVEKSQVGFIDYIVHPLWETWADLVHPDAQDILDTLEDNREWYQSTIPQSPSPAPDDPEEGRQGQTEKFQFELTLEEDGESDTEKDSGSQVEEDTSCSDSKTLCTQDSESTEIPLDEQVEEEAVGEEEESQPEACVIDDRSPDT
row,IC50 [µM],Structure (SMILES)
1,0.5 to 1,"CCOC(=O)C1(c2nc3c(OC)ccc(-c4ccc(C#N)cc4)n3n2)CC1 [Compound 146, 1-[5-(4-Cyano-phenyl)-8-methoxy-[1,2,4]triazolo[1,5-a]pyridin-2-yl]-cyclopropanecarboxylic acid ethyl ester]"
2,> 1,"COc1ccc(-c2ccc(C#N)cc2)n2nc(C3(C(=O)O)CC3)nc12 [Compound 147, 1-[5-(4-Cyano-phenyl)-8-methoxy-[1,2,4]triazolo[1,5-a]pyridin-2-yl]-cyclopropanecarboxylic acid]"
3,< 0.5,"COc1ccc(-c2ccc(C#N)cc2)n2nc(C3(C(N)=O)CC3)nc12 [Compound 148, 1-[5-(4-Cyano-phenyl)-8-methoxy-[1,2,4]triazolo[1,5-a]pyridin-2-yl]-cyclopropanecarboxylic acid amide]"
4,< 0.5,"COc1ccc(-c2cncc(C#N)c2)n2nc(C3(C(=O)NC(C)C)CC3)nc12 [Compound 149, 1-[5-(5-Cyano-pyridin-3-yl)-8-methoxy-[1,2,4]triazolo[1,5-a]pyridin-2-yl]-cyclopropanecarboxylic acid isopropylamide]"
5,< 0.5,"COc1ccc(-c2cccc(C#N)c2)n2nc(C3(COC(=O)N4CCCC4)CC3)nc12 [Compound 151, Pyrrolidine-1-carboxylic acid 1-[5-(3-cyano-phenyl)-8-methoxy-[1,2,4]triazolo[1,5-a]pyridin-2-yl]-cyclopropylmethyl ester]"
6,< 0.5,"COc1ccc(-c2cccc(C#N)c2)n2nc(C3(COC(=O)NC(C)C)CC3)nc12 [Compound 152, Isopropyl-carbamic acid 1-[5-(3-cyano-phenyl)-8-methoxy-[1,2,4]triazolo[1,5-a]pyridin-2-yl]-cyclopropylmethyl ester]"
7,< 0.5,"COc1ccc(-c2cccc(C#N)c2)n2nc(C3(COCc4ccccc4)CC3)nc12 [Compound 153, 3-[2-(1-Benzyloxymethyl-cyclopropyl)-8-methoxy-[1,2,4]-triazolo[1,5-a]pyridin-5-yl]-benzonitrile]"
8,< 0.5,"COc1ccc(-c2cccc(C#N)c2)n2nc(C3(CNC(=O)C(C)C)CC3)nc12 [Compound 154, N-{1-[5-(3-Cyano-phenyl)-8-methoxy-[1,2,4]triazolo[1,5-a]pyridin-2-yl]-cyclopropylmethyl}-isobutyramide]"
9,< 0.5,"COc1ccc(-c2cccc(C#N)c2)n2nc(C3(CNC(=O)OC4CCCC4)CC3)nc12 [Compound 155, {1-[5-(3-Cyano-phenyl)-8-methoxyl-[1,2,4]triazolo[1,5-a]pyridin-2-yl]-cyclopropylmethyl}-carbamic acid cyclopentyl ester]"
10,< 0.5,"COc1ccc(-c2cccc(C#N)c2)n2nc(C3(CNC(=O)N4CCCC4)CC3)nc12 [Compound 156, Pyrrolidine-1-carboxylic acid {1-[5-(3-cyano-phenyl)-8-methoxy-[1,2,4]triazolo[1,5-a]pyridin-2-yl]-cyclopropylmethyl}-amide]"
11,0.5 to 1,"COc1ccc(C2=NNC(=O)CC2C)n2nc(C3CC3)nc12 (stereo not shown) [Compound 158, 6-(2-Cyclopropyl-8-methoxyl-[1,2,4]triazolo[1,5-a]pyridin-5-yl)-5-methyl-4,5-dihydro-2H-pyridazin-3-one]"
12,< 0.5,"COc1ccc(-c2cncc(C#N)c2)n2nc(C3CC3)nc12 [Compound 159, 5-(2-Cyclopropyl-8-methoxy-[1,2,4]triazolo[1,5-a]pyridin-5-yl)-nicotinonitrile]"
13,< 0.5,"COc1ccc(-c2ccc(C#N)c(C)c2)n2nc(C3CC3)nc12 [Compound 161, 4-(2-Cyclopropyl-8-methoxyl-[1,2,4]triazolo[1,5-a]pyridin-5-yl)-2-methyl-benzonitrile]"
14,< 0.5,"COc1ccc(-c2cc(F)cc(C#N)c2)n2nc(C3CC3)nc12 [Compound 164, 3-(2-Cyclopropyl-8-methoxy-[1,2,4]triazolo[1,5-a]pyridin-5-yl)-5-fluoro-benzonitrile]"
15,< 0.5,"COc1ccc(-c2ccc(C#N)c(F)c2)n2nc(C3CC3)nc12 [Compound 165, 4-(2-Cyclopropyl-8-methoxyl-[1,2,4]-triazolo[1,5-a]pyridin-5-yl)-2-fluoro-benzonitrile]"
16,< 0.5,"COc1cc(-c2ccc(OC)c3nc(C4CC4)nn23)ccc1C#N [Compound 166, 4-(2-Cyclopropyl-8-methoxy-[1,2,4]triazolo[1,5-a]pyridin-5-yl)-2-methoxy-benzonitrile]"
17,< 0.5,"COc1ccc(-c2cc(C#N)cc(CO)c2)n2nc(C3CC3)nc12 [Compound 168, 3-(2-Cyclopropyl-8-methoxy-[1,2,4]triazolo[1,5-a]pyridin-5-yl)-5-hydroxymethyl-benzonitrile]"

row,IC50 [µM],Structure (SMILES)
1,< 0.5,"COc1cc(C#N)cc(-c2ccc(OC)c3nc(C4CC4)nn23)c1 [Compound 169, 3-(2-Cyclopropyl-8-methoxy-[1,2,4]triazolo[1,5-a]pyridin-5-yl)-5-methoxy-benzonitrile]"
2,< 0.5,"COc1ccc(-c2ccc3c(c2)CNC3=O)n2nc(C3CC3)nc12 [Compound 171, 5-(2-Cyclopropyl-8-methoxy-[1,2,4]triazolo[1,5-a]pyridin-5-yl)-2,3-dihydro-isoindol-1-one]"
3,< 0.5,"COc1ccc(-c2cccc3c2CCC3=O)n2nc(C3(C(=O)NCc4ccccc4)CC3)nc12 [Compound 172, 1-[8-Methoxy-5-(1-oxo-indan-4-yl)-[1,2,4]triazolo[1,5-a]pyridin-2-yl]-cyclopropanecarboxylic acid benzylamide]"
4,< 0.5,"COc1ccc(-c2cncc(C#N)c2)n2nc(C3(C(=O)NCc4ccccc4)CC3)nc12 [Compound 173, 1-[5-(5-Cyano-pyridin-3-yl)-8-methoxy-[1,2,4]triazolo[1,5-a]pyridin-2-yl]-cyclopropanecarboxylic acid benzylamide]"
5,< 0.5,"COc1cc(-c2ccc(OC)c3nc(C4(C(=O)NCC5CCCCC5)CC4)nn23)ccc1C#N [Compound 174, 1-[5-(4-Cyano-3-methoxy-phenyl)-8-methoxy-[1,2,4]triazolo[1,5-a]pyridin-2-yl]-cyclopropanecarboxylic acid cyclohexylmethyl-amide]"
6,< 0.5,"COc1cc(-c2ccc(OC)c3nc(C4(C(=O)NC(C)C)CC4)nn23)ccc1C#N [Compound 175, 1-[5-(4-Cyano-3-methoxy-phenyl)-8-methoxy-[1,2,4]triazolo[1,5-a]pyridin-2-yl]-cyclopropanecarboxylic acid isopropylamide]"
7,< 0.5,"COc1ccc(-c2cccc3c2CCC3=O)n2nc(C3(C(=O)NCC4CCCCC4)CC3)nc12 [Compound 176, 1-[8-Methoxy-5-(1-oxo-indan-4-yl)-[1,2,4]triazolo[1,5-a]pyridin-2-yl]-cyclopropanecarboxylic acid cyclohexylmethyl-amide]"
8,< 0.5,"COc1cc(-c2ccc(OC)c3nc(C4(C(=O)NCCS(C)(=O)=O)CC4)nn23)ccc1C#N [Compound 177, 1-[5-(4-Cyano-3-methoxy-phenyl)-8-methoxy-[1,2,4]triazolo[1,5-a]pyridin-2-yl]-cyclopropanecarboxylic acid (2-methanesulfonyl-ethyl)-amide]"
9,< 0.5,"COc1cc(-c2ccc(OC)c3nc(C4(C(=O)NCc5ccccc5)CC4)nn23)ccc1C#N [Compound 178, 1-[5-(4-Cyano-3-methoxy-phenyl)-8-methoxy-[1,2,4]triazolo[1,5-a]pyridin-2-yl]-cyclopropanecarboxylic acid benzylamide]"
10,< 0.5,"COc1ccc(-c2ccc3c(c2)COC3=O)n2nc(C3(C(=O)NCc4ccccc4)CC3)nc12 [Compound 179, 1-[8-Methoxy-5-(1-oxo-1,3-dihydro-isobenzofuran-5-yl)-[1,2,4]triazolo[1,5-a]pyridin-2-yl]-cyclopropanecarboxylic acid benzylamide]"
11,< 0.5,"COc1ccc(-c2cccc3c2CCC3=O)n2nc(C3(C(=O)NC(C)C)CC3)nc12 [Compound 180, 1-[8-Methoxy-5-(1-oxo-indan-4-yl)-[1,2,4]triazolo[1,5-a]pyridin-2-yl]-cyclopropanecarboxylic acid isopropylamide]"
12,< 0.5,"COc1ccc(-c2ccc3c(c2)CCC3=O)n2nc(C3(C(=O)NC(C)C)CC3)nc12 [Compound 181, 1-[8-Methoxy-5-(1-oxo-indan-5-yl)-[1,2,4]triazolo[1,5-a]pyridin-2-yl]-cyclopropanecarboxylic acid isopropylamide]"
13,< 0.5,"COc1ccc(-c2ccc3c(c2)CCC3=O)n2nc(C3(C(=O)NCc4ccccc4)CC3)nc12 [Compound 182, 1-[8-Methoxy-5-(1-oxo-indan-5-yl)-[1,2,4]triazolo[1,5-a]pyridin-2-yl]-cyclopropanecarboxylic acid benzylamide]"
14,< 0.5,"COc1ccc(-c2cccc3c2CCC3=O)n2nc(C3(C(=O)NCCS(C)(=O)=O)CC3)nc12 [Compound 183, 1-[8-Methoxy-5-(1-oxo-indan-4-yl)-[1,2,4]triazolo[1,5-a]pyridin-2-yl]-cyclopropanecarboxylic acid (2-methanesulfonyl-ethyl)-amide]"
15,< 0.5,"COc1ccc(-c2ccc3c(c2)CCC3=O)n2nc(C3(C(=O)NCCS(C)(=O)=O)CC3)nc12 [Compound 184, 1-[8-Methoxy-5-(1-oxo-indan-5-yl)-[1,2,4]triazolo[1,5-a]pyridin-2-yl]-cyclopropanecarboxylic acid (2-methanesulfonyl-ethyl)-amide]"
16,< 0.5,"COc1ccc(-c2cncc(C#N)c2)n2nc(C3(C(=O)NCC4CCCCC4)CC3)nc12 [Compound 185, 1-[5-(5-Cyano-pyridin-3-yl)-8-methoxy-[1,2,4]triazolo[1,5-a]pyridin-2-yl]-cyclopropanecarboxylic acid cyclohexylmethyl-amide]"
17,< 0.5,"COc1ccc(-c2cncc(C#N)c2)n2nc(C3(C(=O)NCCS(C)(=O)=O)CC3)nc12 [Compound 186, 1-[5-(5-Cyano-pyridin-3-yl)-8-methoxy-[1,2,4]triazolo[1,5-a]pyridin-2-yl]-cyclopropanecarboxylic acid (2-methanesulfonyl-ethyl)-amide]"
